Experimental data published in PubChem BioAssay AID2060905 (Molecular Pharmacology Branch, DTP, NCI, 2025).
pIC50: −log10 of the molar value. Blank lines part the entries; values can stand above or below the compound they belong to.

Test system: 282377-053-R-J1-PDC complex spheroid viability
Assay: Anticancer human tumor 282377-053-R-J1-PDC patient-derived colon adenocarcinoma cell line growth inhibition [RAS]
Settings: for pIC50: curve of first compound; for viability, T/C: stronger effect = lower value
Procedure, shortened: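 Agents were tested in combination matrices in half-log decrements from a top concentration at or near clinical Cmax (10 microM if undetermined). Targets were multi-cell spheroids of tumour lines plus HUVEC and MSC stromal cells.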

[1] = second compound 0.000949 µM, first compound 0.000949 µM
[2] = second compound 0.000949 µM, first compound 0.003 µM
[3] = second compound 0.000949 µM, first compound 0.00949 µM
[4] = second compound 0.000949 µM, first compound 0.03 µM
[5] = second compound 0.000949 µM, first compound 0.0949 µM
[6] = second compound 0.000949 µM, first compound 0.3 µM
[7] = second compound 0.003 µM, first compound 0.000949 µM
[8] = second compound 0.003 µM, first compound 0.003 µM
[9] = second compound 0.003 µM, first compound 0.00949 µM
[10] = second compound 0.003 µM, first compound 0.03 µM
[11] = second compound 0.003 µM, first compound 0.0949 µM
[12] = second compound 0.003 µM, first compound 0.3 µM
[13] = second compound 0.00949 µM, first compound 0.000949 µM
[14] = second compound 0.00949 µM, first compound 0.003 µM
[15] = second compound 0.00949 µM, first compound 0.00949 µM
[16] = second compound 0.00949 µM, first compound 0.03 µM
[17] = second compound 0.00949 µM, first compound 0.0949 µM
[18] = second compound 0.00949 µM, first compound 0.3 µM
[19] = second compound 0.03 µM, first compound 0.000949 µM
[20] = second compound 0.03 µM, first compound 0.003 µM
[21] = second compound 0.03 µM, first compound 0.00949 µM
[22] = second compound 0.03 µM, first compound 0.03 µM
[23] = second compound 0.03 µM, first compound 0.0949 µM
[24] = second compound 0.03 µM, first compound 0.3 µM
[25] = second compound 0.0949 µM, first compound 0.000949 µM
[26] = second compound 0.0949 µM, first compound 0.003 µM
[27] = second compound 0.0949 µM, first compound 0.00949 µM
[28] = second compound 0.0949 µM, first compound 0.03 µM
[29] = second compound 0.0949 µM, first compound 0.0949 µM
[30] = second compound 0.0949 µM, first compound 0.3 µM
[31] = second compound 0.3 µM, first compound 0.000949 µM
[32] = second compound 0.3 µM, first compound 0.003 µM
[33] = second compound 0.3 µM, first compound 0.00949 µM
[34] = second compound 0.3 µM, first compound 0.03 µM
[35] = second compound 0.3 µM, first compound 0.0949 µM
[36] = second compound 0.3 µM, first compound 0.3 µM
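Note: spheroids exposed to agents for seven days before readout.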
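Throughout, for viability, T/C: luminescence viability as percent of DMSO vehicle control wells.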

- pIC50 (second compound 0.000949 µM): < 6.52
- pIC50 (second compound 0.003 µM): < 6.52
- pIC50 (second compound 0.00949 µM): < 6.52
- pIC50 (second compound 0.03 µM): < 6.52
- pIC50 (second compound 0.0949 µM): < 6.52
- pIC50 (second compound 0.3 µM): < 6.52
Structure (SMILES): CC1(C)CCC(Nc2ncc(C(F)(F)F)c(-c3c[nH]c4c(P(C)(C)=O)c(C#N)ccc34)n2)CN1 (centres undefined) + CCn1c(-c2cccnc2C(C)OC)c2c3cc(ccc31)N1CCOC(CC(NC(=O)C(C(C)C)N(C)C(=O)C3(F)CCN(C(=O)C#CC(C)(C)N(C)C)CC3)C(=O)N3CCCC(N3)C(=O)OCC(C)(C)C2)C1
- viability, T/C [1]: 83.9%
- viability, T/C [2]: 124%
- viability, T/C [3]: 115%
- viability, T/C [4]: 90%
- viability, T/C [5]: 104%
- viability, T/C [6]: 75.9%
- viability, T/C [7]: 94.1%
- viability, T/C [8]: 112%
- viability, T/C [9]: 140%
- viability, T/C [10]: 88.6%
- viability, T/C [11]: 89.5%
- viability, T/C [12]: 89.3%
- viability, T/C [13]: 102%
- viability, T/C [14]: 105%
- viability, T/C [15]: 134%
- viability, T/C [16]: 97%
- viability, T/C [17]: 80.8%
- viability, T/C [18]: 92.9%
- viability, T/C [19]: 89.3%
- viability, T/C [20]: 118%
- viability, T/C [21]: 98.2%
- viability, T/C [22]: 96.3%
- viability, T/C [23]: 91.2%
- viability, T/C [24]: 96.9%
- viability, T/C [25]: 84.5%
- viability, T/C [26]: 135%
- viability, T/C [27]: 131%
- viability, T/C [28]: 77%
- viability, T/C [29]: 75.1%
- viability, T/C [30]: 67.9%
- viability, T/C [31]: 92.6%
- viability, T/C [32]: 107%
- viability, T/C [33]: 110%
- viability, T/C [34]: 84.5%
- viability, T/C [35]: 56.9%
- viability, T/C [36]: 53.6%

- pIC50 (second compound 0.000949 µM): < 6.52
- pIC50 (second compound 0.003 µM): < 6.52
- pIC50 (second compound 0.00949 µM): < 6.52
- pIC50 (second compound 0.03 µM): < 6.52
- pIC50 (second compound 0.0949 µM): < 6.52
- pIC50 (second compound 0.3 µM): 6.74
Structure (SMILES): CCc1c2c(nc3ccc(O)cc13)-c1cc3c(c(=O)n1C2)COC(=O)[C@]3(O)CC + CCn1c(-c2cccnc2C(C)OC)c2c3cc(ccc31)N1CCOC(CC(NC(=O)C(C(C)C)N(C)C(=O)C3(F)CCN(C(=O)C#CC(C)(C)N(C)C)CC3)C(=O)N3CCCC(N3)C(=O)OCC(C)(C)C2)C1
- viability, T/C [1]: 133%
- viability, T/C [2]: 105%
- viability, T/C [3]: 161%
- viability, T/C [4]: 108%
- viability, T/C [5]: 95.5%
- viability, T/C [6]: 90.6%
- viability, T/C [7]: 111%
- viability, T/C [8]: 125%
- viability, T/C [9]: 131%
- viability, T/C [10]: 99.1%
- viability, T/C [11]: 122%
- viability, T/C [12]: 98.8%
- viability, T/C [13]: 129%
- viability, T/C [14]: 110%
- viability, T/C [15]: 142%
- viability, T/C [16]: 115%
- viability, T/C [17]: 98%
- viability, T/C [18]: 85.1%
- viability, T/C [19]: 95%
- viability, T/C [20]: 115%
- viability, T/C [21]: 146%
- viability, T/C [22]: 139%
- viability, T/C [23]: 110%
- viability, T/C [24]: 94.4%
- viability, T/C [25]: 119%
- viability, T/C [26]: 143%
- viability, T/C [27]: 163%
- viability, T/C [28]: 136%
- viability, T/C [29]: 110%
- viability, T/C [30]: 82.4%
- viability, T/C [31]: 96.7%
- viability, T/C [32]: 135%
- viability, T/C [33]: 149%
- viability, T/C [34]: 117%
- viability, T/C [35]: 69.8%
- viability, T/C [36]: 35%
